Test results taken from patent US9090628B2, “Benzoxazepin compounds selective for PI3K P110 delta and methods of use” (GENENTECH, INC., priority 2011, dated 2015).

Assays:
p110 alpha = p110 alpha (Homo sapiens (Human), UniProt P42336); assay: PI3K isoform inhibition assay, p110 alpha (for alpha/delta selectivity); settings: ratio of biochemical IC50 values
Description: (§1) PI3K enzymatic activity was assayed by measuring the amount of product phosphatidylinositol 3,4,5-phosphate (PIP3) formed from substrate 4,5 phosphatidylinositol 4,5-phosphate (PIP2) using a fluorescence polarization displacement assay. The decrease in fluorescence polarization of a fluorescent PIP3 probe is measured as it is displaced from a PIP3-binding protein GRP-1 detector by PI3K-catalyzed product. […] The kinase reactions were initiated by the addition of 40 ng/mL p110α/p85α, 300 ng/mL p110β/p85α, 40 ng/mL p110γ, or 40 ng/mL p110δ/p85α (Upstate Group, Millipore; Dundee, UK), and 10 μM PIP2 (Echelon Biosciences) to the wells. […] After 60 minutes of incubation at room temperature to allow equilibration of labeled and unlabeled PIP3 binding, the parallel and perpendicular components of the fluorescence emissions from each sample were measured at an excitation wavelength of 530 nm and an emission wavelength of 590 nm using an Envision fluorescent plate reader with a rhodamine filter (PerkinElmer Life and Analytical Sciences; Wellesley, Mass.). The assay is capable of detecting 0.1-2.0 μM PIP3 product. The IC50 values were obtained by fitting the dose-dependent inhibition data to a 4-parameter equation using Assay Explorer software (MDL, San Ramon, Calif.).
The same protocol may be used to establish IC50 values for p110α (alpha) PI3K binding.
(§2) The four Class I PI 3-kinases are cloned into baculovirus vectors as follows: […]

p110 delta = p110 delta (Homo sapiens (Human), UniProt O00329); assay: PI3K isoform inhibition assay, p110 delta (fluorescence polarization displacement); type: biochemical
p110 delta, sequence (O00329 whole entry, canonical isoform): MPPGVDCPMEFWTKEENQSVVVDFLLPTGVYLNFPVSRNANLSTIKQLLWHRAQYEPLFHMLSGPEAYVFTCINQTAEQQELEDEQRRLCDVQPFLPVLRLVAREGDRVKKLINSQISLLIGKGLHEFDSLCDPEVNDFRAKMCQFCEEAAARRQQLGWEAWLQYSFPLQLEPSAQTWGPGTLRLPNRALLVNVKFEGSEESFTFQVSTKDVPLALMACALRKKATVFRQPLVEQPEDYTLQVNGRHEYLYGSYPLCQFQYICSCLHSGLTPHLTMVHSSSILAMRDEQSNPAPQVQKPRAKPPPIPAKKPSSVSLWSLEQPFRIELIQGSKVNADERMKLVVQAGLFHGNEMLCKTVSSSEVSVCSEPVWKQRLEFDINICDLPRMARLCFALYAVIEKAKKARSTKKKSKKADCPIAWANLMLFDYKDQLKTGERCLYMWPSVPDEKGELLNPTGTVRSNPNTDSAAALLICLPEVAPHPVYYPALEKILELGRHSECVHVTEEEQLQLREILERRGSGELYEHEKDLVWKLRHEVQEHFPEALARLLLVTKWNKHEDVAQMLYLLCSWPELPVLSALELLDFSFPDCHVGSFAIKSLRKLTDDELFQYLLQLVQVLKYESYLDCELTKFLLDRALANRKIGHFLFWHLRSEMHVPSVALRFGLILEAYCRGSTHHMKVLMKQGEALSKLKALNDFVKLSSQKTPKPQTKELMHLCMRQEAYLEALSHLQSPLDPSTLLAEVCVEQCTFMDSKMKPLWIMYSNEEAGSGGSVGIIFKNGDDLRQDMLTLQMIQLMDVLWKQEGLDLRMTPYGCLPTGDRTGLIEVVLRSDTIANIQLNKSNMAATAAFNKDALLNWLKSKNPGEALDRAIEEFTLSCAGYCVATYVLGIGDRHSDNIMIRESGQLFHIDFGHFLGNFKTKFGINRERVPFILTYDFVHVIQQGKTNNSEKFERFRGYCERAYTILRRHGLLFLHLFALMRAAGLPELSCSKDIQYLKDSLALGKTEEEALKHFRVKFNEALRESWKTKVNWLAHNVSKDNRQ
p110 delta, sequence (P27986 whole entry partner, canonical isoform): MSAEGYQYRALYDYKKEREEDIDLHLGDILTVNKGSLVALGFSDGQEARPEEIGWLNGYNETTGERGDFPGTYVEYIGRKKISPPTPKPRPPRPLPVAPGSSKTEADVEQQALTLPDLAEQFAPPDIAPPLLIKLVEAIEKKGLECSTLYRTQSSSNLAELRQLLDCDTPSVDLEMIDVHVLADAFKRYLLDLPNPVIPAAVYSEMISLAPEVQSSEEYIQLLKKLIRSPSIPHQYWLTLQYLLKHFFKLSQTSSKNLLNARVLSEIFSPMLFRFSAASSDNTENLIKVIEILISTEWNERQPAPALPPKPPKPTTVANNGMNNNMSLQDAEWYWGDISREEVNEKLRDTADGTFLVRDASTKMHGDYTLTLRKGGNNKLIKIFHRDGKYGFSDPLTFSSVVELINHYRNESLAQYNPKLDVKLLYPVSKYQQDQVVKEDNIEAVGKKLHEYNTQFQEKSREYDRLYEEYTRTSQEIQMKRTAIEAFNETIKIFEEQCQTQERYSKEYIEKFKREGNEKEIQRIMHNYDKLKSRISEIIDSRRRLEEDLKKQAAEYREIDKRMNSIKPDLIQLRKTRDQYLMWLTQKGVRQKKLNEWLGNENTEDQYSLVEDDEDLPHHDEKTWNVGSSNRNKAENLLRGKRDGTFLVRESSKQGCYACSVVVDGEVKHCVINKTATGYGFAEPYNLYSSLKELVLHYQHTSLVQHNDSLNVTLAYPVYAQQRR
Description: as §1
The Formula I compound was serially diluted in 100% DMSO. The kinase reaction was incubated for 1 h at room temperature, and the reaction was terminated by the addition of PBS. IC50 values were subsequently determined using sigmoidal dose-response curve fit (variable slope).
as §2

p110 alpha, sequence (P42336 whole entry, canonical isoform): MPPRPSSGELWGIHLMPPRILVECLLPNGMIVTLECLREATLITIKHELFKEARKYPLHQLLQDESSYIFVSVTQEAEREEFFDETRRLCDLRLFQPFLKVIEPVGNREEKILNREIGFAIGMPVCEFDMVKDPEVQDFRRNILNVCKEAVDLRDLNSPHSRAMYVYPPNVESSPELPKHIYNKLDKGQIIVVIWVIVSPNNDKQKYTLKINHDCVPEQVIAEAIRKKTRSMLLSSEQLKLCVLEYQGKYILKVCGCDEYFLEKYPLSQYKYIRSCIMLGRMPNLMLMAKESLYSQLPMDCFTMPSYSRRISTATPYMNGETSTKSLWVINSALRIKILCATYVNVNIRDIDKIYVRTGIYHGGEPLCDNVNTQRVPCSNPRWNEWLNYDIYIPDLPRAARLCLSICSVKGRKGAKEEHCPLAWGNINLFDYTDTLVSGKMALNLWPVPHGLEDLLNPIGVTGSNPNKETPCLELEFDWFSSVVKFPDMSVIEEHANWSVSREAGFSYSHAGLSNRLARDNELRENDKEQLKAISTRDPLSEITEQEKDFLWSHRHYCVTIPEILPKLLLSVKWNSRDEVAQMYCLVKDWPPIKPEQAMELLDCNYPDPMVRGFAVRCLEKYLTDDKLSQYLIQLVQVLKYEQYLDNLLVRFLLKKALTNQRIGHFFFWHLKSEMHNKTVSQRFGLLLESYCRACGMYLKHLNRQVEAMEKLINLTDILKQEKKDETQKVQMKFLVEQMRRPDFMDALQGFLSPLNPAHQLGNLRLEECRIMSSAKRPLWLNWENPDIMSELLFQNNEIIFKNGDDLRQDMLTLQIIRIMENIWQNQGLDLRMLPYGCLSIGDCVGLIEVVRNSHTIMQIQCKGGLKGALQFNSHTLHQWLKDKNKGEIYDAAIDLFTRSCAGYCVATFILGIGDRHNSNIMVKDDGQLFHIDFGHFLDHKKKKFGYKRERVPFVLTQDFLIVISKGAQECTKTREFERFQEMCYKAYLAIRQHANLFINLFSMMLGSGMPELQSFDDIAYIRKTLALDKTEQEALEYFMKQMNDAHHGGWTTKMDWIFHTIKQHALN
p110 alpha, sequence (P27986 whole entry partner, canonical isoform): as the sequence (P27986 whole entry partner, canonical isoform) above

Compound | IC50 p110 alpha/IC50 p110 delta (p110 alpha) | IC50 (p110 delta) [nM]
CC(C)n1ncnc1-c1cn2c(n1)-c1cnc(N3CCCC3CN3CCCC3)cc1OCC2 (centres unmarked) [Example 105, 2-(1-isopropyl-1H-1,2,4-triazol-5-yl)-9-(2-(pyrrolidin-1-ylmethyl)pyrrolidin-1-yl)-5,6-dihydroimidazo[1,2-d]pyrido[3,4-f][1,4]oxazepine] | 18.3 | 0.707
CC(C)n1ncnc1-c1cn2c(n1)-c1cnc(N3CCCC3C3CCN(C)CC3)cc1OCC2 (centres unmarked) [Example 106, 2-(1-isopropyl-1H-1,2,4-triazol-5-yl)-9-(2-(1-methylpiperidin-4-yl)pyrrolidin-1-yl)-5,6-dihydroimidazo[1,2-d]pyrido[3,4-f][1,4]oxazepine] | 25.7 | 0.541
CC(C)n1ncnc1-c1cn2c(n1)-c1ccc(-c3ccccc3S(N)(=O)=O)cc1OCC2 [Example 109, 2-(2-(1-isopropyl-1H-1,2,4-triazol-5-yl)-5,6-dihydrobenzo[f]imidazo[1,2-d][1,4]oxazepin-9-yl)benzenesulfonamide] | 17.3 | 14
Cc1nc(-c2cn3c(n2)-c2ccc(-c4ncnn4C4CCN(C(C)(C)C)CC4)cc2OCC3)n(C(C)C)n1 [Example 258, 9-(1-(1-tert-butylpiperidin-4-yl)-1H-1,2,4-triazol-5-yl)-2-(1-isopropyl-3-methyl-1H-1,2,4-triazol-5-yl)-5,6-dihydrobenzo[f]imidazo[1,2-d][1,4]oxazepine] | 10.2 | 82.1
Cc1nc(-c2cn3c(n2)-c2ccc(OC4(CN5CCN(C)CC5)CC4)cc2OCC3)n(C(C)C)n1 [Example 259, 2-(1-isopropyl-3-methyl-1H-1,2,4-triazol-5-yl)-9-(1-((4-methylpiperazin-1-yl)methyl)cyclopropoxy)-5,6-dihydrobenzo[f]imidazo[1,2-d][1,4]oxazepine] | 26.1 | 3.31
Cc1nc(-c2cn3c(n2)-c2ccc(OC4CC(C)CN(C(C)C)C4)cc2OCC3)n(C(C)C)n1 (centres unmarked) [Example 260, 2-(1-isopropyl-3-methyl-1H-1,2,4-triazol-5-yl)-9-(1-isopropyl-5-methylpiperidin-3-yloxy)-5,6-dihydrobenzo[f]imidazo[1,2-d][1,4]oxazepine] | 12.8 | 2.56
Cc1nc(-c2cn3c(n2)-c2ccc(OC4(C)CCN(C(C)C)C4)cc2OCC3)n(C(C)C)n1 (centres unmarked) [Example 261, 2-(1-isopropyl-3-methyl-1H-1,2,4-triazol-5-yl)-9-(1-isopropyl-3-methylpyrrolidin-3-yloxy)-5,6-dihydrobenzo[f]imidazo[1,2-d][1,4]oxazepine] | 14.4 | 0.638
Cc1nc(-c2cn3c(n2)-c2ccc(-c4ccnn4C4CCCN(Cc5ccccc5)C4)cc2OCC3)n(C(C)C)n1 (centres unmarked) [Example 262, 9-(1-(1-benzylpiperidin-3-yl)-1H-pyrazol-5-yl)-2-(1-isopropyl-3-methyl-1H-1,2,4-triazol-5-yl)-5,6-dihydrobenzo[f]imidazo[1,2-d][1,4]oxazepine] | 21.8 | 8.53
Cc1cc2c(cc1-c1ccnn1C1CCN(C)CC1)OCCn1cc(-c3ncnn3C(C)C)nc1-2 [Example 264, 2-(1-isopropyl-1H-1,2,4-triazol-5-yl)-10-methyl-9-(1-(1-methylpiperidin-4-yl)-1H-pyrazol-5-yl)-5,6-dihydrobenzo[f]imidazo[1,2-d][1,4]oxazepine] | 10 | 17.3
Cc1nc(-c2cn3c(n2)-c2ccc(-c4ccnn4C4CCN(C(C)(C)C)CC4)cc2OCC3)n(C(C)C)n1 [Example 269, 9-[2-(1-tert-butyl-4-piperidyl)pyrazol-3-yl]-2-(2-isopropyl-5-methyl-1,2,4-triazol-3-yl)-5,6-dihydroimidazo[1,2-d][1,4]benzoxazepine] | 9.8 | 4.57
CC(C)n1ncnc1-c1cn2c(n1)-c1cc([S+]([O-])C3CCN(C(C)(C)C)CC3)ccc1OCC2 (centres unmarked) [Example 270, 10-(1-tert-butylpiperidin-4-ylsulfinyl)-2-(1-isopropyl-1H-1,2,4-triazol-5-yl)-5,6-dihydrobenzo[f]imidazo[1,2-d][1,4]oxazepine] | 184 | 0.811
Cc1nc(-c2cn3c(n2)-c2ccc(OC4(C)CNC4)cc2OCC3)n(C(C)C)n1 [Example 271, 2-(2-isopropyl-5-methyl-1,2,4-triazol-3-yl)-9-(3-methylazetidin-3-yl)oxy-5,6-dihydroimidazo[1,2-d][1,4]benzoxazepine] | 9.8 | 0.633
Cc1nc(-c2cn3c(n2)-c2ccc(N4CCCC4C4CCN(CC(C)(C)O)CC4)cc2OCC3)n(C(C)C)n1 (centres unmarked) [Example 272, 1-[4-[1-[2-(2-isopropyl-5-methyl-1,2,4-triazol-3-yl)-5,6-dihydroimidazo[1,2-d][1,4]benzoxazepin-9-yl]pyrrolidin-2-yl]-1-piperidyl]-2-methyl-propan-2-ol] | 49.9 | 0.986
Cc1nc(-c2cn3c(n2)-c2cc(C(=O)N4CCN(C(C)(C)C)CC4)c(F)cc2OCC3)n(C(C)C)n1 [Example 273, (4-tert-butylpiperazin-1-yl)-[9-fluoro-2-(2-isopropyl-5-methyl-1,2,4-triazol-3-yl)-5,6-dihydroimidazo[1,2-d][1,4]benzoxazepin-10-yl]methanone] | 69.9 | 2.73
Cc1nc(-c2cn3c(n2)-c2ccc(N4CCCC4C4CCN(CC(C)(C)O)CC4)cc2OCC3)n(C(C)C)n1 (centres unmarked) [Example 274, 1-[4-[1-[2-(2-isopropyl-5-methyl-1,2,4-triazol-3-yl)-5,6-dihydroimidazo[1,2-d][1,4]benzoxazepin-9-yl]pyrrolidin-2-yl]-1-piperidyl]-2-methyl-propan-2-ol] | 34 | 2.2
Cc1nc(-c2cn3c(n2)-c2ccc(OC4(c5ccccc5)CN(C(C)C)C4)cc2OCC3)n(C(C)C)n1 [Example 275, 2-(2-isopropyl-5-methyl-1,2,4-triazol-3-yl)-9-(1-isopropyl-3-phenyl-azetidin-3-yl)oxy-5,6-dihydroimidazo[1,2-d][1,4]benzoxazepine] | 17 | 6.2
Cc1nc(-c2cn3c(n2)-c2cc(C(O)C4CCN(C)CC4)ccc2OCC3)n(C(C)C)n1 (centres unmarked) [Example 276, [2-(2-isopropyl-5-methyl-1,2,4-triazol-3-yl)-5,6-dihydroimidazo[1,2-d][1,4]benzoxazepin-10-yl]-(1-methyl-4-piperidyl)methanol] | 10.8 | 17.9
Cc1nc(-c2cn3c(n2)-c2ccc(-c4cnn(C(C)C)c4CN4CCN(C(C)(C)C)CC4)cc2OCC3)n(C(C)C)n1 [Example 277, 9-[5-[(4-tert-butylpiperazin-1-yl)methyl]-1-isopropyl-pyrazol-4-yl]-2-(2-isopropyl-5-methyl-1,2,4-triazol-3-yl)-5,6-dihydroimidazo[1,2-d][1,4]benzoxazepine] | 27.8 | 4
Cc1nc(-c2cn3c(n2)-c2ccc(-c4cnn(C(C)C)c4CN4CCN(C)CC4)cc2OCC3)n(C(C)C)n1 [Example 278, 9-[1-isopropyl-5-[(4-methylpiperazin-1-yl)methyl]pyrazol-4-yl]-2-(2-isopropyl-5-methyl-1,2,4-triazol-3-yl)-5,6-dihydroimidazo[1,2-d][1,4]benzoxazepine] | 33.4 | 3.34
Cc1nc(-c2cn3c(n2)-c2ccc(-c4cn(C)nc4C4CCCN(C(C)C)C4)cc2OCC3)n(C(C)C)n1 (centres unmarked) [Example 280, 2-(2-isopropyl-5-methyl-1,2,4-triazol-3-yl)-9-[3-(1-isopropyl-3-piperidyl)-1-methyl-pyrazol-4-yl]-5,6-dihydroimidazo[1,2-d][1,4]benzoxazepine] | 32.7 | 0.878
Cc1nc(-c2cn3c(n2)-c2cc(C(=O)N4CCN(C(C)(C)CO)CC4)c(F)cc2OCC3)n(C(C)C)n1 [Example 281, [9-fluoro-2-(2-isopropyl-5-methyl-1,2,4-triazol-3-yl)-5,6-dihydroimidazo[1,2-d][1,4]benzoxazepin-10-yl]-[4-(2-hydroxy-1,1-dimethyl-ethyl)piperazin-1-yl]methanone] | 30.6 | 5.63
Cc1nc(-c2cn3c(n2)-c2ccc(-c4ccnn4C4CC(C)N(C)C(C)C4)cc2OCC3)n(C(C)C)n1 (centres unmarked) [Example 282, 2-(2-isopropyl-5-methyl-1,2,4-triazol-3-yl)-9-[2-(1,2,6-trimethyl-4-piperidyl)pyrazol-3-yl]-5,6-dihydroimidazo[1,2-d][1,4]benzoxazepine] | 76.9 | 1.3
